One data set has as its system MC38 tumor cells. Description: MC-38 syngeneic colon cancer model, tumor growth and tolerability. The class given is in vivo. As to the method:
The inventors undertook a combination study of APL-101 and an anti-PD-1 antibody to evaluate the safety and efficacy of the combination. In the MC-38 colon cancer model in syngeneic mice, four groups, five animals per group received either vehicle (water at 20 mg/kg orally, once a day), APL-101 (10 mg/kg orally, once a day), anti-PD-1 (10 mg/kg intraperitoneal injection, twice a week), or APL-101 plus anti-PD-1. In the vehicle group as well as the APL-101 group, animals were dosed daily on Days 1-15 whereas in the single agent anti-PD-1 group, doses were administered on Days 1, 4, 8, 11, and 15. In the combination arm of APL-101 and anti-PD-1, APL-101 was administered on Days 5-15 (4-day delay) while the anti-PD-1 was dosed on Days 1, 4, 8, 11, and 15.
(§1) Animals: female C57BL/6 mice, age 6-8 weeks and of body weight 18-20 g, were provided by Shanghai Lingchang Bio-Technology Co. Ltd.
APL-101 were provided by CBT pharmaceuticals (now Apollomics, Inc.). Anti-PD 1 antibodies were supplied by BioXcell.
Cell culture: The MC38 tumor cells were thawed and maintained in vitro as a monolayer culture in DMEM medium supplemented with 10% heat inactivated fetal bovine serum at 37° C. in an atmosphere of 5% CO2 in air. […] The cells growing in an exponential growth phase were harvested and counted for tumor inoculation. […]
Group assignment: Before grouping and treatment, all animals were weighed and the tumor volumes were measured using a caliper. […]
Observation and data collection: After tumor cells inoculation, the animals were checked daily for morbidity and mortality. During routine monitoring, the animals were checked for any effects of tumor growth and treatments on normal behavior such as mobility, visual estimation of food and water consumption, body weight gain/loss (body weights were measured twice per week after randomization), eye/hair matting and any other abnormal effect. Death and observed clinical signs were recorded in the comment of datasheet for each animal in detail. […] (Tumor weight was measured at the end of study). […]

The subject of another data set is H22 tumor cells. Description: H22 syngeneic liver cancer model, tumor growth and tolerability. The class given is in vivo. As to the method: The inventors undertook a combination study of APL-101 and an anti-PD-1 antibody to evaluate the safety and efficacy of the combination. In the H22 liver cancer model in syngeneic mice, four groups, ten animals per group received either vehicle (PVP K30 at 20 mg/kg orally, once a day for three weeks), APL-101 (10 mg/kg orally, once a day for three weeks), anti-PD-1 (10 mg/kg intraperitoneal injection, twice a week for three weeks), or APL-101 plus anti-PD-1.
as §1
APL-101 were provided by CBT pharmaceuticals (now Apollomics, Inc.). […]
Cell culture: The H22 tumor cell line were maintained in vitro in RPMI-1640 medium supplemented with 10% fetal bovine serum at 37° C. in an atmosphere of 5% CO2 in air. […] The cells growing in an exponential growth phase were harvested and counted for tumor inoculation. […]
Observation and data collection: After tumor cells inoculation, the animals were checked daily for morbidity and mortality. During routine monitoring, the animals were checked for any effects of tumor growth and treatments on behavior such as mobility, food and water consumption, body weight gain/loss (body weights were measured twice weekly after randomization), eye/hair matting and any other abnormalities. […] (Tumor weight were measured at the end of study). […]

Another data set relates to RENCA tumor cells. The data set can be described thus: Syngeneic Renca kidney cancer model, tumor growth and tolerability. It counts as in vivo.
Text: The inventors undertook a combination study of APL-101 and an anti-PD-1 antibody to evaluate the safety and efficacy of the combination. […]
as §1
APL-101 were provided by CBT pharmaceuticals (Apollomics, Inc.). Anti-PD 1 antibodies were supplied by BioXcell. PVP K30 were supplied by Fluka Analytical.
Cell culture: The Renca tumor cell line was maintained in vitro in DMEM medium supplemented with 10% fetal bovine serum at 37° C. in an atmosphere of 5% CO2 in air. The tumor cells were routinely subcultured twice weekly. The cells growing in an exponential growth phase were harvested and counted for tumor inoculation. […]
Observation and data collection: After tumor cells inoculation, the animals were checked daily for morbidity and mortality. During routine monitoring, the animals were checked for any effects of tumor growth and treatments on behavior such as mobility, food and water consumption, body weight gain/loss (body weights were measured twice weekly after randomization), eye/hair matting and any other abnormalities. Mortality and observed clinical signs were recorded for individual animals in detail. […] (Tumor weight were measured at the end of study). […]

The conditions of data set [1]: 150 mg every 12 hours; 300 mg total daily dose; cited from earlier work.
For data set [2] the following is noted: 3 mg/kg IV on Day 1 and Day 15 of 28-day cycle; relapsed and refractory solid tumor subjects; cited from earlier work.

Like-named read-outs stand apart in the source and are kept apart here.

Take `Cn1cc2cc(C(F)(F)c3nnc4ccc(-c5cnn(C6CC6)c5)nn34)c(F)cc2n1` [APL-101]: the “Mean percent tumor growth” value is on record as 35.61% in the data set on MC38 tumor cells (MC 38 syngeneic model, APL-101 10 mg/kg qd, anti-PD-1 Ab 10 mg/kg biw); 108.73% with H22 tumor cells (H22 syngeneic liver cancer model, APL-101 10 mg/kg QD x3 weeks, anti-PD-1 IP 10 mg/kg BIW x3 weeks); 77% in the data set with RENCA tumor cells (syngeneic Renca kidney cancer model, APL-101 10 mg/kg QD x3 weeks, anti-PD-1 IP 10 mg/kg BIW x3 weeks). In addition, the “body weight of treated mice” value is recorded as “did not affect the body weight” in the data set with MC38 tumor cells (MC-38 model, FIG. 1C, alone or in combination); “did not affect the body weight” in the data set on H22 tumor cells (H-22 model, FIG. 2C, alone or in combination); “did not affect the body weight” with RENCA tumor cells (RENCA model, FIG. 3C, alone or in combination). Moreover, the “mean percent tumor growth inhibition” value in the data set on MC38 tumor cells (MC-38 syngeneic mice, APL-101 PO 10 mg/kg QD, anti-PD-1 IP 10 mg/kg BIW, combination x2 weeks, single agents x3 weeks) is reported as 33.6%. The “dose deemed safe by Safety Review Committee” value in data set [1] is listed as “safe”.

“APL-501: anti-PD-1 antibody, previously named CBT-501, see WO2016/014688”: the “dose deemed safe by Safety Review Committee” value in data set [2] is reported as “safe”.

The values above are taken from patent publication US20200405719A1, “CANCER TREATMENT USING COMBINATION OF NEUTROPHIL MODULATOR WITH MODULATOR OF IMMUNE CHECKPOINT” (APOLLOMICS INC., priority 2018, published 2020).
